{"source": "patent US20170217976A1", "about": "“6-(AMINO ACID)-MORPHINAN DERIVATIVES IN COMBINATION WITH PERMEATION […] FOR USE AS AN ORALLY, […], TRA[…] NASALLY AD[…]” (C[…], priority 2014, published 2017)", "key": {"MOR": {"target": "T1, MOR (Rattus norvegicus, UniProt P33535)", "T1 construct": "from tissue", "T1 sequence (P33535 whole entry)": "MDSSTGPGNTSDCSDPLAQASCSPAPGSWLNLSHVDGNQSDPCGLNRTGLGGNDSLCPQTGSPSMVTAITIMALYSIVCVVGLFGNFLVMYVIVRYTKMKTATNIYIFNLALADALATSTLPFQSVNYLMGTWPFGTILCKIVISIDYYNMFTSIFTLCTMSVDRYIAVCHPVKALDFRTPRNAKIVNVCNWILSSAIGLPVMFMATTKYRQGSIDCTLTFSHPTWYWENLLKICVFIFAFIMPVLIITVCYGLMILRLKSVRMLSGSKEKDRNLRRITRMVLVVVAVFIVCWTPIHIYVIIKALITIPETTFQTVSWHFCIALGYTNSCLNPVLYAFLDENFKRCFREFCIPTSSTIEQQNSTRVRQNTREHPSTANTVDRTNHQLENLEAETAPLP", "assay": "Opioid receptor binding, MOR, rat brain membranes"}, "DOR": {"target": "T2, DOR (Rattus norvegicus, UniProt P33533)", "T2 construct": "from tissue", "T2 sequence (P33533 whole entry)": "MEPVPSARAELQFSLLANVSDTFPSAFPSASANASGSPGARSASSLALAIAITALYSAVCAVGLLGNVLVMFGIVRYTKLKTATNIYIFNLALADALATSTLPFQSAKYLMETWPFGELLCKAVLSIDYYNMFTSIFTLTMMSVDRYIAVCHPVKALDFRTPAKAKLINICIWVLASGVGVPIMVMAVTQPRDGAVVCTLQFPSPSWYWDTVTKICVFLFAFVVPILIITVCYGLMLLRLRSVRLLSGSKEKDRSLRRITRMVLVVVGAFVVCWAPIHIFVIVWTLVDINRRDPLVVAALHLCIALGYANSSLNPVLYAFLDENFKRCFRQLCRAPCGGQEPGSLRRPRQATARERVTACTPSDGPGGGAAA", "assay": "Opioid receptor binding, DOR, rat brain membranes"}, "KOR": {"target": "T3, KOR (Cavia porcellus, UniProt P41144)", "T3 construct": "from tissue", "T3 sequence (P41144 whole entry)": "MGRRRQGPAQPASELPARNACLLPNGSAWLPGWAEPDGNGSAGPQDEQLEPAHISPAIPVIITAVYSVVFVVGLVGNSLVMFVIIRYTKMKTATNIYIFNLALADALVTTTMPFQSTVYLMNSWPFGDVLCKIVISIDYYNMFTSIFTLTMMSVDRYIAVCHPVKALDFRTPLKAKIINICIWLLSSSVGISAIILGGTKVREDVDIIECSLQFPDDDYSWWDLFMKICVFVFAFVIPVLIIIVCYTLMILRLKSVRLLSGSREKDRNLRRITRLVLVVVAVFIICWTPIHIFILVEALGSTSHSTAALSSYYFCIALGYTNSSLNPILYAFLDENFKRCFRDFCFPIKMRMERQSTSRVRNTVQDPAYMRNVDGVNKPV", "assay": "Opioid receptor binding, KOR, guinea pig brain membranes"}, "[1]": {"target": "T4, human MOP expressed in CHO cells (Homo sapiens, UniProt P35372)", "T4 construct": "expressed in transfected cells; host or cells: CHO cells (per the unit's head)", "T4 sequence (P35372 whole entry)": "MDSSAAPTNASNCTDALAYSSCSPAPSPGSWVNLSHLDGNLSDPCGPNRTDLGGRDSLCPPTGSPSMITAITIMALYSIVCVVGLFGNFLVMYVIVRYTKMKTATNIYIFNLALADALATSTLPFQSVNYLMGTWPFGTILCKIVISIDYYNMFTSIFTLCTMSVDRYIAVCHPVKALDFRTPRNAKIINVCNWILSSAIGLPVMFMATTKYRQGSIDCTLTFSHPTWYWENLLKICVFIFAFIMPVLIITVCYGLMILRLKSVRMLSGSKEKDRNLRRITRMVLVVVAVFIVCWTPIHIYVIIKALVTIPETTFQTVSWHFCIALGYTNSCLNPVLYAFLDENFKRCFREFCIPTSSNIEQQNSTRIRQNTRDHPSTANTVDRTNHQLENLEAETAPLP", "assay": "[35S]GTPγS binding, antagonism at MOR (Ke against DAMGO)", "type": "biochemical", "conditions": "for Kb: [35S]GTPγS binding, MOR Ke, Table 1-6, antagonist Ke measured against DAMGO"}, "[2]": {"conditions": "Riba P. et al. 2010, cited from earlier work"}, "human MOR": {"target": "T5, human MOR (Homo sapiens, UniProt P35372)", "T5 construct": "expressed in transfected cells; host or cells: CHO cells", "T5 sequence (P35372 whole entry)": "as above", "assay": "biochemical", "type": "biochemical", "conditions": "for Emax: read-out: [35S]GTPγS binding, MOR % stim.", "procedure": "A number of compounds were evaluated for agonist potency and efficacy at the MOR using the [^35S]GTPγS functional assay in CHO cells expressing human MOR receptors."}, "[3]": {"assay": "pH-metric determination of pKa, logP and logD in octanol/water (PCA200/Cheqsol)", "type": "physicochemical", "procedure": "All titrations were performed in 0.15M KCl solution under argon gas. The pKa was determined by the shape of the titration curve and partition coefficients were determined by the shift in titration curve of pKa in the presence of octanol. The analysis of pH-metric data was performed by RefinementPro software (version 2.0, Sirius, Sussex, UK)."}, "[4]": {"test_system": "mouse vas deferens preparation", "assay": "Mouse vas deferens bioassay", "conditions": "read-out: IC50, agonist potency in mouse vas deferens", "procedure": "The mouse vas deferens bioassay was performed as described in: M. Spetea et al., Eur. J. Pharmacol. 2004, 483, 301-308"}, "[5]": {"assay": "Permeation study through rat small intestine in Ussing type diffusion chambers", "type": "in vitro ADME", "conditions": "apical to basolateral, pH 7.5, no permeation enhancer, three hours incubation", "protocol": "Ussing type diffusion chambers with a surface area of 0.64 cm^2 were utilized. Rat small intestine was excised immediately after sacrificing the animal and mounted in the chamber. The donor and acceptor compartments of the chamber were filled with 1.0 ml of the freshly prepared incubation medium containing either 40 mM HEPES buffer (HEPES=2-(4-(2-hydroxyethyl)-1-piperazinyl)-ethane sulfonic acid) adjusted to pH 7.5 or 6.5 or 50 mM sodium acetate buffer adjusted to pH 5.5. […] The samples were centrifuged at 7,200 g for 5 minutes and the supernatant was analyzed via HPLC. Cumulative corrections were performed for the previously removed samples to determine the total amount permeated."}, "rats": {"test_system": "rats", "assay": "Tail-flick test in rats after oral administration", "type": "in vivo, rat", "conditions": "Rattus norvegicus, po", "procedure": "The rat tail-flick test was performed as described in: S. Furst et. al. J. Pharmacol. Exp. Ther. 2005, 312, 609-618"}, "[6]": {"conditions": "Binding Ki MOR, Table 1-6, rat brain membranes"}, "[7]": {"conditions": "Binding Ki MOR, Table 2-6, rat brain membranes"}, "[8]": {"conditions": "Binding Ki DOR, Table 1-6, rat brain membranes"}, "[9]": {"conditions": "Binding Ki DOR, Table 2-6, rat brain membranes"}, "[10]": {"conditions": "Binding Ki KOR, Table 1-6, guinea pig brain membranes"}, "[11]": {"conditions": "Binding Ki KOR, Table 2-6, guinea pig brain membranes"}, "[12]": {"conditions": "Table 1-4, human MOP expressed in CHO cells, read-out: [35S]GTPγS binding, MOR EC50"}, "[13]": {"conditions": "Table 1-4, measured against DAMGO"}, "[14]": {"conditions": "Binding Ki (nM) MOR, in vitro binding assay, rat brain membranes"}, "[15]": {"conditions": "Binding Ki MOR, Table 1-4, rat brain membranes"}, "[16]": {"conditions": "Binding Ki (nM) DOR, in vitro binding assay, rat brain membranes"}, "[17]": {"conditions": "Binding Ki DOR, Table 1-4, rat brain membranes"}, "[18]": {"conditions": "Binding Ki (nM) KOR, in vitro binding assay, guinea pig brain membranes"}, "[19]": {"conditions": "Binding Ki KOR, Table 1-4, guinea pig brain membranes"}}, "note": "Read-outs that look alike come from different tables or passages of the source."}
{"smiles": "CCO[C@@]12CCC(=O)[C@@H]3Oc4c(O)ccc5c4[C@@]31CCN(CC1CC1)[C@@H]2C5", "note": "[Compound 14-OEt-NTX, 14-O-Ethylnaltrexone, reference compound]", "values": [{"measurement": "Ki", "setting": "MOR; [6]", "value": 0.35, "unit": "nM"}, {"measurement": "Ki", "setting": "MOR; [7]", "value": 0.35, "unit": "nM"}, {"measurement": "Ki", "setting": "DOR; [8]", "value": 4.13, "unit": "nM"}, {"measurement": "Ki", "setting": "DOR; [9]", "value": 4.13, "unit": "nM"}, {"measurement": "Ki", "setting": "KOR; [10]", "value": 0.93, "unit": "nM"}, {"measurement": "Ki", "setting": "KOR; [11]", "value": 0.93, "unit": "nM"}, {"measurement": "EC50", "setting": "[1]", "value": "> 10000", "unit": "nM"}, {"measurement": "Kb", "setting": "[1]", "value": 0.31, "unit": "nM"}]}
{"smiles": "CN1CC[C@]23c4c5ccc(O)c4O[C@H]2C(=O)CC[C@@]3(O)[C@H]1C5", "note": "[OMO, oxymorphone]", "values": [{"measurement": "logD (pH = 7.4)", "setting": "[2]; pH 7.4, published data", "value": "−0.32"}, {"measurement": "logP", "setting": "[2]; published data", "value": 0.67}, {"measurement": "pKa", "setting": "[2]; published data", "value": 8.33}]}
{"smiles": "CO[C@@]12CC[C@H](NCCCC(=O)O)[C@@H]3Oc4c(O)ccc5c4[C@@]31CCN(C)[C@@H]2C5", "note": "[Compound 15]", "values": [{"measurement": "EC50", "setting": "human MOR", "value": 1.9, "unit": "nM"}, {"measurement": "Emax", "setting": "human MOR", "value": 113, "unit": "%"}, {"measurement": "logP", "setting": "[3]; octanol/water, 25° C.", "value": -0.36}]}
{"smiles": "CCO.CO[C@@]12CC[C@@H](NCC(=O)O)[C@@H]3Oc4c(O)ccc5c4[C@@]31CCN(C)[C@@H]2C5.Cl.Cl.O", "note": "[HS731, 2-[(4,5α-EPOXY-3-HYDROXY-14β-METHOXY-17-METHYLMORPHINAN-6β-YL)AMINO]ACETIC ACID DIHYDROCHLORIDE HYDRATE ETHANOLATE]", "values": [{"measurement": "EC50", "setting": "human MOR", "value": 3.88, "unit": "nM"}, {"measurement": "Emax", "setting": "human MOR", "value": 107, "unit": "%"}, {"measurement": "pKa", "setting": "[3]; […] KCl solution (aqueous titration), 25° C., 0.15M KCl", "value": 2.4}, {"measurement": "logP", "setting": "[3]; octanol/water, 25° C.", "value": -0.78}, {"measurement": "logD", "setting": "[3]; octanol/water, pH 7.4, 25° C.", "value": -2.06}, {"measurement": "IC50", "setting": "[4]; Mus musculus", "value": 7, "unit": "nM"}, {"measurement": "permeation through rat intestinal mucosa", "setting": "[5]", "value": 11, "unit": "%"}, {"measurement": "ED50", "setting": "rats; 0.5 h, read-out: ED50 (p.o., mg/kg) 30 min, 30 min", "value": 21, "unit": "mg/kg"}, {"measurement": "ED50", "setting": "rats; read-out: ED50 (p.o., mg/kg) 1 h, 1 h", "value": 5.52, "unit": "mg/kg"}, {"measurement": "ED50", "setting": "rats; read-out: ED50 (p.o., mg/kg) 2 h, 2 h", "value": 6.78, "unit": "mg/kg"}, {"measurement": "ED50", "setting": "rats; read-out: ED50 (p.o., mg/kg) 3 h, 3 h", "value": 6.33, "unit": "mg/kg"}]}
{"smiles": "CO[C@@]12CC[C@H](N[C@@H](Cc3ccccc3)C(=O)O)[C@@H]3Oc4c(O)ccc5c4[C@@]31CCN(C)[C@@H]2C5", "note": "[Compound 3]", "values": [{"measurement": "EC50", "setting": "human MOR; [12]", "value": 0.03, "unit": "nM"}, {"measurement": "Emax", "setting": "human MOR; [13]", "value": 116, "unit": "%"}]}
{"smiles": "CO[C@@]12CC[C@@H](N[C@@H](CO)C(=O)O)[C@@H]3Oc4c(O)ccc5c4[C@@]31CCN(C)[C@@H]2C5", "note": "[Compound 37]", "values": [{"measurement": "EC50", "setting": "human MOR; [12]", "value": 3.24, "unit": "nM"}, {"measurement": "Ki", "setting": "MOR; [14]", "value": 2.14, "unit": "nM"}, {"measurement": "Ki", "setting": "MOR; [15]", "value": 2.14, "unit": "nM"}, {"measurement": "Ki", "setting": "DOR; [16]", "value": 5.29, "unit": "nM"}, {"measurement": "Ki", "setting": "DOR; [17]", "value": 5.29, "unit": "nM"}, {"measurement": "Ki", "setting": "KOR; [18]", "value": 152, "unit": "nM"}, {"measurement": "Ki", "setting": "KOR; [19]", "value": 152, "unit": "nM"}]}
{"smiles": "CO[C@@]12CC[C@H](N[C@@H](CCCCN)C(=O)O)[C@@H]3Oc4c(O)ccc5c4[C@@]31CCN(C)[C@@H]2C5", "note": "[Compound 38]", "values": [{"measurement": "Ki", "setting": "MOR; [14]", "value": 0.19, "unit": "nM"}, {"measurement": "Ki", "setting": "MOR; [15]", "value": 0.19, "unit": "nM"}, {"measurement": "logP", "setting": "[3]; octanol/water, 25° C.", "value": -0.66}, {"measurement": "Ki", "setting": "DOR; [16]", "value": 1.27, "unit": "nM"}, {"measurement": "Ki", "setting": "DOR; [17]", "value": 1.27, "unit": "nM"}, {"measurement": "Ki", "setting": "KOR; [18]", "value": 12.6, "unit": "nM"}, {"measurement": "Ki", "setting": "KOR; [19]", "value": 12.6, "unit": "nM"}]}
{"smiles": "CO[C@@]12CC[C@H](N[C@@H](CCC(=O)O)C(=O)O)[C@@H]3Oc4c(O)ccc5c4[C@@]31CCN(C)[C@@H]2C5", "note": "[Compound 19]", "values": [{"measurement": "EC50", "setting": "human MOR; [12]", "value": 1.61, "unit": "nM"}]}
{"smiles": "CO[C@@]12CC[C@H](NCC(=O)O)[C@@H]3Oc4c(O)ccc5c4[C@@]31CCN(CC1CC1)[C@@H]2C5", "note": "[Compound 61]", "values": [{"measurement": "Ki", "setting": "MOR; [6]", "value": 0.68, "unit": "nM"}, {"measurement": "Ki", "setting": "MOR; [7]", "value": 0.68, "unit": "nM"}, {"measurement": "Ki", "setting": "DOR; [8]", "value": 5.15, "unit": "nM"}, {"measurement": "Ki", "setting": "DOR; [9]", "value": 5.15, "unit": "nM"}, {"measurement": "Ki", "setting": "KOR; [10]", "value": 4.65, "unit": "nM"}, {"measurement": "Ki", "setting": "KOR; [11]", "value": 4.65, "unit": "nM"}, {"measurement": "EC50", "setting": "[1]", "value": "> 10000", "unit": "nM"}, {"measurement": "Kb", "setting": "[1]", "value": 0.63, "unit": "nM"}]}
{"smiles": "C[C@@H](NC(=O)[C@@H](N)Cc1ccc(O)cc1)C(=O)NCC(=O)N(C)[C@@H](Cc1ccccc1)C(=O)NCCO", "note": "[DAMGO, reference compound]", "values": [{"measurement": "IC50", "setting": "[4]", "value": 76.6, "unit": "nM"}]}
{"smiles": "CO[C@@]12CC[C@@H](N[C@@H](Cc3c[nH]c4ccccc34)C(=O)O)[C@@H]3Oc4c(O)ccc5c4[C@@]31CCN(C)[C@@H]2C5", "note": "[Compound 46]", "values": [{"measurement": "EC50", "setting": "human MOR; [12]", "value": 0.61, "unit": "nM"}, {"measurement": "Emax", "setting": "human MOR; [13]", "value": 112, "unit": "%"}, {"measurement": "Ki", "setting": "MOR; [14]", "value": 0.65, "unit": "nM"}, {"measurement": "Ki", "setting": "MOR; [15]", "value": 0.65, "unit": "nM"}, {"measurement": "Ki", "setting": "DOR; [16]", "value": 1.19, "unit": "nM"}, {"measurement": "Ki", "setting": "DOR; [17]", "value": 1.19, "unit": "nM"}, {"measurement": "Ki", "setting": "KOR; [18]", "value": 8.66, "unit": "nM"}, {"measurement": "Ki", "setting": "KOR; [19]", "value": 8.66, "unit": "nM"}]}
